Test results reported in BindingDB's records for patent US20250257059 (Nerio Therapeutics, 2025).

Each molecule was assayed against T1, Tyrosine-protein phosphatase non-receptor type 2 (Homo sapiens, UniProt P17706) (assay: In vitro enzymatic assay).
T1 sequence (P17706 whole entry): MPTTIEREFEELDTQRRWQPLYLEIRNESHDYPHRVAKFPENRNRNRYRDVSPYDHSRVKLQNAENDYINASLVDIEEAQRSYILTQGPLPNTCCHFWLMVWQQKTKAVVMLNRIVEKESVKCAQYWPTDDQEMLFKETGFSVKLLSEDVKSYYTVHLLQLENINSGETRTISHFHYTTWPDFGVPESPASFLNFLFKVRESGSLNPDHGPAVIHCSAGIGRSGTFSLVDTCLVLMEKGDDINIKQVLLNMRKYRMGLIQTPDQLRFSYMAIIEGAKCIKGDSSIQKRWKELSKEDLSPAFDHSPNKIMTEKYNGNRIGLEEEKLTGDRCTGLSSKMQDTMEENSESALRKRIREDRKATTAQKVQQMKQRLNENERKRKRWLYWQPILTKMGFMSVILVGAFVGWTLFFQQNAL
Protocol: PTPN2 was produced in E. coli as a GST-TEV fusion and the GST was removed by TEV digestion, followed by additional purification to yield full-length PTPN2 (SEQ ID 1). PTPN2 enzyme was diluted in assay buffer (50 mM HEPES pH7.5, 0.2 mM EDTA, 1 mM DTT, 0.02% Brij-35, 0.02% BSA) to a final concentration of 0.5 nM and added to black 384-well non-binding plates (Greiner, 781900). Compounds were subsequently added using a Tecan D300e dispenser. Following a 10 min incubation at room temperature, DiFMUP substrate (ThermoFisher, D22065) was added to a final concentration of 100 μM. Plates were transferred to a SpectraMax plate reader (Molecular Devices) and fluorescence intensity was measured (ex 358, em 455) after a 30 min incubation at room temperature. […] A four-parameter curve fit was used to determine IC50 values from % inhibition data.

Structure (SMILES)	IC50
O=C1CN(c2c(O)cc(CC3CCN(Cc4ccco4)C3)cc2F)S(=O)(=O)N1 (centres undefined) [US20250257059, Example 7]	7 nM
O=C1CN(c2c(O)cc(CC3CCCCNC3)cc2F)S(=O)(=O)N1 (centres undefined) [US20250257059, Example 55]	16 nM
CC(C)CCCN1CCCCC1Cc1ccc(O)c(N2CC(=O)NS2(=O)=O)c1F (centres undefined) [US20250257059, Example 79]	7 nM
O=C1CN(c2c(O)ccc(CC3CCCCN3CCC3CCCC3)c2F)S(=O)(=O)N1 (centres undefined) [US20250257059, Example 80]	5 nM
COC1CCN(CCc2cc(O)c(N3CC(=O)NS3(=O)=O)c(F)c2)CC1 [US20250257059, Example 104]	3 nM
CC(C)(C)C1CCN(CCc2cc(O)c(N3CC(=O)NS3(=O)=O)c(F)c2)C1 (centres undefined) [US20250257059, Example 111]	2 nM
O=C1CN(c2c(O)cc(CCN3CC[C@@H](C(F)(F)F)C3)cc2F)S(=O)(=O)N1 [US20250257059, Example 122]	3 nM
O=C1CN(c2c(O)cc(CCN3Cc4ccccc4C3)cc2F)S(=O)(=O)N1 [US20250257059, Example 128]	2 nM
CC(C)[C@@H]1CCN(CCc2cc(O)c(N3CC(=O)NS3(=O)=O)c(F)c2)C1 [US20250257059, Example 134]	1 nM
CC(C)[C@H]1CCN(CCc2cc(O)c(N3CC(=O)NS3(=O)=O)c(F)c2)C1 [US20250257059, Example 135]	2 nM
O=C1CN(c2c(O)cc(CCN3CC(C(F)(F)F)C3)cc2F)S(=O)(=O)N1 [US20250257059, Example 137]	5 nM

Next, values leading:

IC50	Structure (SMILES)
7 nM	O=C1CN(c2c(O)cc(CCN3CCOCC3)cc2F)S(=O)(=O)N1 [US20250257059, Example 89]
3 nM	O=C1CN(c2c(O)cc(CCN3CCCC(F)C3)cc2F)S(=O)(=O)N1 (centres undefined) [US20250257059, Example 97]
2 nM	O=C1CN(c2c(O)cc(CCN3CCC4(CCCC4)C3)cc2F)S(=O)(=O)N1 [US20250257059, Example 112]
2 nM	O=C1CN(c2c(O)cc(CCN3CCC4(CCOCC4)C3)cc2F)S(=O)(=O)N1 [US20250257059, Example 113]
1 nM	COC[C@@H]1CCN(CCc2cc(O)c(N3CC(=O)NS3(=O)=O)c(F)c2)C1 [US20250257059, Example 117]
2 nM	CC1(C)CN(CCc2cc(O)c(N3CC(=O)NS3(=O)=O)c(F)c2)C1 [US20250257059, Example 127]
3 nM	O=C1CN(c2c(O)cc(CCN3CC(F)C3)cc2F)S(=O)(=O)N1 [US20250257059, Example 136]
2 nM	CC1CN(CCc2cc(O)c(N3CC(=O)NS3(=O)=O)c(F)c2)C1 [US20250257059, Example 140]
